PMC6443876, “Molecular structure of a 5,10‐methylenetetrahydrofolate dehydrogenase from the silkworm Bombyx mori” (FEBS Open Bio, 2019)
One block for each molecule: values may come before it.

How the values were obtained:
[1] = molecular target: T1, bmMTHFD (Bombyx mori, UniProt H9IYM1, K53A); test: decrease in absorption at […] nm, Michaelis-Menten fit; type: biochemical; details: cyclohydrolase activity; 0.1 M potassium maleate pH 7.4, 0.02 M 2-mercaptoethanol, 30 °C
T1 construct: gene method; full-length ORF (906 bp, 301 residues, 32 733 Da), pET-15b (NdeI/BamHI); homodimer ~63 kDa; cDNA from larval fat body

[2] = molecular target: T2, bmMTHFD (Bombyx mori, UniProt H9IYM1, D120A); test: as above; type: biochemical; details: cyclohydrolase activity; 0.1 M potassium maleate pH 7.4, 0.02 M 2-mercaptoethanol, 30 °C
T2 construct: gene method; full-length ORF (906 bp, 301 residues, 32 733 Da), pET-15b (NdeI/BamHI); homodimer ~63 kDa; cDNA from larval fat body

[3] = molecular target: T3, bmMTHFD (Bombyx mori, UniProt H9IYM1, Q97A); test: as above; type: biochemical; details: cyclohydrolase activity; 0.1 M potassium maleate pH 7.4, 0.02 M 2-mercaptoethanol, 30 °C
T3 construct: gene method; full-length ORF (906 bp, 301 residues, 32 733 Da), pET-15b (NdeI/BamHI); homodimer ~63 kDa; cDNA from larval fat body

[4] = molecular target: T4, bmMTHFD (Bombyx mori, UniProt H9IYM1); test: as above; type: biochemical; details: cyclohydrolase activity; 0.1 M potassium maleate pH 7.4, 0.02 M 2-mercaptoethanol, 30 °C
T4 construct: gene method; full-length ORF (906 bp, 301 residues, 32 733 Da), pET-15b (NdeI/BamHI); homodimer ~63 kDa; cDNA from larval fat body
T4 sequence (H9IYM1 1-301): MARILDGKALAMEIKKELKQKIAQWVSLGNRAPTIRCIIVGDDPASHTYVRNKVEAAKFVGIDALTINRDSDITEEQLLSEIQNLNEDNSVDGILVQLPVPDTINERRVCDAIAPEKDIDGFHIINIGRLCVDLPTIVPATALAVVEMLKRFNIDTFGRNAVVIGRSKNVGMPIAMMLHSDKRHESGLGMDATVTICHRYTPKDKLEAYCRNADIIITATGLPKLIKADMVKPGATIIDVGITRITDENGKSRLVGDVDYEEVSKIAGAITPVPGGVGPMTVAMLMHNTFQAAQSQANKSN

[5] = molecular target: T2, bmMTHFD; test: endpoint absorbance at […] nm, Michaelis-Menten fit; type: biochemical; details: dehydrogenase activity; MTHF as co-substrate; 20 mM sodium phosphate pH 6.5, 30 mM 2-mercaptoethanol, 28 °C
[6] = molecular target: T4, bmMTHFD; test: endpoint absorbance at […] nm, Michaelis-Menten fit; type: biochemical; details: dehydrogenase activity, 20 mM sodium phosphate pH 6.5, 30 mM 2-mercaptoethanol, 28 °C
[7] = molecular target: Bombyx mori 5,10-methylenetetrahydrofolate dehydrogenase (Bombyx mori); test: SEC; Superdex 200 analytical gel filtration, calibrated with protein standards (thyroglobulin, globulin, ovalbumin, myoglobin); bmMTHFD eluted at 205 mL, corresponding to 63 kDa
[8] = molecular target: T1, bmMTHFD; test: endpoint absorbance at […] nm, Michaelis-Menten fit; type: biochemical; details: dehydrogenase activity, 20 mM sodium phosphate pH 6.5, 30 mM 2-mercaptoethanol, 28 °C
[9] = molecular target: T5, bmMTHFD (Bombyx mori, UniProt H9IYM1, S46A); test: endpoint absorbance at […] nm, Michaelis-Menten fit; type: biochemical; details: dehydrogenase activity, 20 mM sodium phosphate pH 6.5, 30 mM 2-mercaptoethanol, 28 °C
T5 construct: gene method; full-length ORF (906 bp, 301 residues, 32 733 Da), pET-15b (NdeI/BamHI); homodimer ~63 kDa; cDNA from larval fat body

[10] = molecular target: T3, bmMTHFD; test: endpoint absorbance at […] nm, Michaelis-Menten fit; type: biochemical; details: dehydrogenase activity; NADP+ as cofactor; 20 mM sodium phosphate pH 6.5, 30 mM 2-mercaptoethanol, 28 °C

T2 sequence (H9IYM1 entry or part of it D120A): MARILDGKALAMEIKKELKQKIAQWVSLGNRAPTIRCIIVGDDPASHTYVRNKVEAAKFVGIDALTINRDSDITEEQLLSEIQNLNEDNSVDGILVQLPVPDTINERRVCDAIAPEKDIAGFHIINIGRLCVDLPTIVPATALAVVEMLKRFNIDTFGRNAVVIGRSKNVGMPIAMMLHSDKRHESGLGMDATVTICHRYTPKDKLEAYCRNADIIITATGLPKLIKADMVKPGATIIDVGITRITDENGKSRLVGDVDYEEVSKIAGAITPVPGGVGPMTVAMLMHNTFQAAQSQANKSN
T1 sequence (H9IYM1 entry or part of it K53A): as the sequence (H9IYM1 entry or part of it D120A) above, with K53A, A120D counted along it
T5 sequence (H9IYM1 entry or part of it S46A): as the sequence (H9IYM1 entry or part of it D120A) above, with S46A, A120D counted along it
T3 sequence (H9IYM1 entry or part of it Q97A): as the sequence (H9IYM1 entry or part of it D120A) above, with Q97A, A120D counted along it

Molecule: Nc1nc2c(c(=O)[nH]1)[N+]1=CN(c3ccc(C(=O)N[C@@H](CCC(=O)O)C(=O)O)cc3)C[C@H]1CN2 [5,10-methenyl-THF]
- K53A [1]: 0.16 (± 1.5 × 10^−2) mM
- D120A [2]: 0.23 (± 2.5 × 10^−2) mM
- Q97A [3]: 0.019 (± 2.5 × 10^−3) mM
- WT [4]: 0.13 (± 6.0 × 10^−3) mM

Molecule: Bombyx mori 5,10-methylenetetrahydrofolate dehydrogenase (enzyme)
- stoichiometry N [7]: 2

Molecule: Nc1nc2c(c(=O)[nH]1)N1CN(c3ccc(C(=O)N[C@@H](CCC(=O)O)C(=O)O)cc3)C[C@H]1CN2 [MTHF]
- K53A ([8]; NADP+ as cofactor): 1.1 (± 1.8 × 10^−2) mM
- S46A ([9]; NADP+ as cofactor): 0.19 (± 4.8 × 10^−3) mM
- Q97A [10]: 0.81 (± 2.8 × 10^−2) mM
- WT ([6]; NADP+ as cofactor): 0.51 (± 3.3 × 10^−2) mM

More lines, now with the values ahead:

- D120A [5]: 2.0 (± 9.0 × 10^−2) mM
- WT ([6]; MTHF as co-substrate): 0.27 (± 2.0 × 10^−2) mM
Molecule: NC(=O)c1ccc[n+]([C@@H]2O[C@H](COP(=O)(O)OP(=O)(O)OC[C@H]3O[C@@H](n4cnc5c(N)ncnc54)[C@H](O)[C@@H]3O)[C@@H](O)[C@H]2O)c1 [NAD^+]

- K53A ([8]; MTHF as co-substrate): 0.62 (± 6.5 × 10^−2) mM
- D120A [5]: 2.0 (± 1.4 × 10^−1) mM
- S46A ([9]; MTHF as co-substrate): 0.98 (± 1.3 × 10^−1) mM
- WT ([6]; MTHF as co-substrate): 0.22 (± 1.0 × 10^−2) mM
Molecule: NC(=O)c1ccc[n+]([C@@H]2O[C@H](COP(=O)(O)OP(=O)(O)OC[C@H]3O[C@@H](n4cnc5c(N)ncnc54)[C@H](OP(=O)(O)O)[C@@H]3O)[C@@H](O)[C@H]2O)c1 [NADP^+]
